# “And” between values parts separate entries of the source, which are not always exact repeats. Identical values can stand only once.
# Conditions: instrument: DT, single field, calibrated with ESI Low Concentration Tuning Mix (Agilent)
Compound,collision cross section (N2) ([M-H]-),collision cross section (N2) ([M+H]+),collision cross section (N2) ([M+Na]+),also measured
NC1(C(=O)[O-])CC1 [1-AMINOCYCLOPROPANECARBOXYLATE],135.1 Å²,–,–,–
Cn1cnc(C[C@H](N)C(=O)O)c1 [1-METHYL-L-HISTIDINE],–,133.4 Å²,138.4 Å²,–
"NCC(N)C(=O)O (stereo unspecified) [2,3-DIAMINOPROPIONATE]",118.2 Å²,138.1 Å²,–,–
"O=C(O)c1cccc(O)c1[O-] [2,3-DIHYDROXYBENZOATE]",120.6 Å²,–,–,–
"O=c1[nH]c(=O)c2nccnc2[nH]1 [2,4-DIHYDROXYPTERIDINE]",125.3 Å²,132.4 Å²,143.8 Å²,–
"O=C(O)c1cc(O)ccc1[O-] [2,5-DIHYDROXYBENZOATE]",124.6 Å²,–,–,–
O=C(O)Cc1ccccc1O [2-HYDROXYPHENYLACETATE],130.1 Å²,–,–,–
O=C(O)c1ccc2ccccc2n1 [2-QUINOLINECARBOXYLATE],–,132 Å²,–,–
"O=C(O)Cc1ccc(O)c(O)c1 [3,4-DIHYDROXYPHENYLACETATE]",–,–,–,collision cross section (N2) ([M+Na-2H]-): 139.9 Å²
"OCC(O)c1ccc(O)c(O)c1 (stereo unspecified) [3,4-DIHYDROXYPHENYLGLYCOL]",–,–,–,collision cross section (N2) ([M-H2O-H]-): 127.5 Å²
"N[C@@H](Cc1cc(I)c(O)c(I)c1)C(=O)O [3,5-DIIODO-L-TYROSINE]",159.3 Å²,171.1 Å²,165.2 Å²,–
Nc1cc(C(=O)O)ccc1[O-] [3-AMINO-4-HYDROXYBENZOATE],125.7 Å²,139.6 Å²,–,–
CC(C)(COP(=O)(O)OP(=O)(O)OC[C@H]1O[C@@H](n2cnc3c(N)ncnc32)[C@H](O)[C@@H]1OP(=O)(O)O)[C@@H](O)C(=O)NCCC(=O)NCCSC(=O)C[C@@](C)(O)CC(=O)O [3-HYDROXY-3-METHYLGLUTARYL-COA],261.9 Å²,265.4 Å²,266.2 Å²,collision cross section (N2) ([M+Na-2H]-): 267.3 Å²
Nc1c(O)cccc1C(=O)O [3-HYDROXYANTHRANILATE],127.8 Å²,131.2 Å²,–,–
COc1cc(CCN)ccc1O [3-METHOXYTYRAMINE],–,146.7 Å²,–,–
CC(C)=CC(=O)SCCNC(=O)CCNC(=O)C(O)C(C)(C)COP(=O)(O)OP(=O)(O)OC[C@H]1O[C@@H](n2cnc3c(N)ncnc32)[C@H](O)[C@@H]1OP(=O)(O)O (stereo partly specified) [3-METHYLCROTONYL-COA],256.7 Å²,256.1 Å²,–,collision cross section (N2) ([M+Na-2H]-): 266.9 Å²
N[C@@H](Cc1ccc(O)c([N+](=O)[O-])c1)C(=O)O [3-NITRO-L-TYROSINE],148.9 Å²,158.2 Å²,154.5 Å²,collision cross section (N2) ([M+Na-2H]-): 147.7 Å²
O=C(O)C(O)COP(=O)(O)O (stereo unspecified) [3-PHOSPHOGLYCERATE],124.4 Å²,136.1 Å²,139.4 Å²,collision cross section (N2) ([M+Na-2H]-): 133 Å² and 141.6 Å²
CC(=O)NCCCC(=O)O [4-ACETAMIDOBUTANOATE],130.8 Å²,–,135.7 Å²,–
NC(N)=NCCCC(=O)O [4-GUANIDINOBUTANOATE],–,130 Å²,–,–
O=Cc1ccc(O)cc1 [4-HYDROXYBENZALDEHYDE],118.2 Å²,–,–,–
O=C(O)c1ccc([O-])cc1 [4-HYDROXYBENZOATE],121.2 Å²,–,–,–
NCC(=O)CCC(=O)O [5-AMINOLEVULINATE],–,130.7 Å²,–,–
NCCc1cc(O)c(O)cc1O [6-HYDROXYDOPAMINE],–,143 Å²,–,–
O=C(O)c1ccc(=O)[nH]c1 [6-HYDROXYNICOTINATE],–,128.9 Å²,–,–
O=C(O)[C@H](O)[C@@H](O)[C@H](O)[C@H](O)COP(=O)(O)O [6-PHOSPHOGLUCONATE],143.6 Å²,–,157.6 Å²,collision cross section (N2) ([M+Na-2H]-): 148.9 Å²
"Nc1ncnc2c1ncn2C1OC(CO)C2OP(=O)(O)OC21 (stereo unspecified) [ADENOSINE 2',3'-CYCLIC PHOSPHATE]",169.4 Å²,168.1 Å²,175.1 Å² and 181 Å²,collision cross section (N2) ([M+H2O-H]-): 173.5 Å²

Compound,collision cross section (N2) ([M-H]-),collision cross section (N2) ([M+H]+),collision cross section (N2) ([M+Na]+),also measured
Nc1ncnc2c1ncn2[C@@H]1O[C@H](COP(=O)(O)OP(=O)(O)O)[C@@H](O)[C@H]1O [ADENOSINE 5'-DIPHOSPHATE],183.7 Å²,187 Å²,193.1 Å²,collision cross section (N2) ([M+Na-2H]-): 187.7 Å²
NC(=O)NC1NC(=O)NC1=O (stereo unspecified) [ALLANTOIN],125.5 Å²,–,142.2 Å²,–
OC[C@H]1OC(O)[C@H](O)[C@H](O)[C@@H]1O (stereo partly specified) [ALLOSE],–,–,143.2 Å² and 146.2 Å²,–
NC(CCCC(=O)O)C(=O)O (stereo unspecified) [AMINOADIPATE],129.9 Å²,134.6 Å²,139.2 Å²,collision cross section (N2) ([M+Na-2H]-): 134 Å²
Nc1ccccc1C(=O)O [ANTHRANILATE],125.5 Å²,–,–,–
CCCCCCCCCCCCCCCCCCCC(=O)O [ARACHIDATE],185.1 Å²,–,–,–
NC(=O)C[C@H](N)C(=O)O [ASPARAGINE],121.9 Å²,–,129.5 Å²,–
C[N+](C)(C)CC(=O)[O-] [BETAINE],–,–,–,collision cross section (N2) ([M+K]+): 130.5 Å²
C=CC1=C(C)C(/C=c2\[nH]/c(=C\c3[nH]c(/C=C4\NC(=O)C(C)=C4C=C)c(C)c3CCC(=O)O)c(CCC(=O)O)c2C)=NC1=O [BILIVERDIN],246 Å²,243.9 Å²,246.5 Å²,–
O=C(O)[C@H]1C[C@@H](O)CN1 [CIS-4-HYDROXY-D-PROLINE],124.3 Å²,128.3 Å²,130.6 Å²,–
CC(O)(CC(=O)O)C(=O)O (stereo unspecified) [CITRAMALATE],122 Å²,–,133.2 Å²,–
COC1=C(OC)C(=O)C(C/C=C(\C)CC/C=C(\C)CC/C=C(\C)CC/C=C(\C)CC/C=C(\C)CC/C=C(\C)CC/C=C(\C)CC/C=C(\C)CC/C=C(\C)CCC=C(C)C)=C(C)C1=O [COENZYME Q10],–,–,306.6 Å²,–
CC(=O)OCC(=O)[C@@]1(O)CC[C@H]2[C@@H]3CCC4=CC(=O)CC[C@]4(C)[C@H]3[C@@H](O)C[C@@]21C [CORTISOL 21-ACETATE],196.3 Å²,198.8 Å²,203 Å²,collision cross section (N2) ([M+K]+): 207.2 Å²
Nc1nc(=O)c2ncn([C@@H]3O[C@@H]4COP(=O)(O)O[C@H]4[C@H]3O)c2[nH]1 [CYCLIC GMP],167.8 Å²,172.4 Å²,184.2 Å²,collision cross section (N2) ([M+Na-2H]-): 169.7 Å²
NC(CCSCC(N)C(=O)O)C(=O)O (stereo unspecified) [CYSTATHIONINE],141.9 Å²,147.3 Å²,147.1 Å²,collision cross section (N2) ([M+Na-2H]-): 144.6 Å²
Nc1ccn([C@@H]2O[C@H](COP(=O)(O)O)[C@@H](O)[C@H]2O)c(=O)n1 [CYTIDINE MONOPHOSPHATE],164.4 Å² and 164.5 Å²,166.8 Å² and 167 Å²,167.9 Å² and 168 Å²,collision cross section (N2) ([M+Na-2H]-): 163.2 Å² and 163.4 Å²
Nc1ccn([C@@H]2O[C@H](COP(=O)(O)OP(=O)(O)OP(=O)(O)O)[C@@H](O)[C@H]2O)c(=O)n1 [CYTIDINE TRIPHOSPHATE],181.2 Å²,188.4 Å²,192.4 Å²,collision cross section (N2) ([M+Na-2H]-): 185 Å²
Nc1ccnc(=O)[nH]1 [CYTOSINE],–,122.8 Å²,–,–
N[C@@H]1C(O)O[C@H](CO)[C@@H](O)[C@@H]1O (stereo partly drawn) [D-MANNOSAMINE],–,138.1 Å²,141.3 Å²,–
Nc1ncnc2c1ncn2[C@H]1C[C@H](O)[C@@H](COP(=O)(O)O)O1 [DEOXYADENOSINE MONOPHOSPHATE],164.9 Å²,168.5 Å²,173 Å²,collision cross section (N2) ([M+Na-2H]-): 169.8 Å²
Nc1ccn([C@H]2C[C@H](O)[C@@H](COP(=O)(O)O)O2)c(=O)n1 [DEOXYCYTIDINE MONOPHOSPHATE],162.4 Å²,–,157 Å² and 164.7 Å²,–
O=CC[C@H](O)[C@H](O)CO [DEOXYRIBOSE],–,–,134.3 Å²,–
C[C@H](O)[C@H](O)C1=Nc2c([nH]c(N)nc2=O)NC1 [DIHYDROBIOPTERIN],–,–,–,collision cross section (N2) ([M+H]+*): 153.9 Å²; collision cross section (N2) ([M+Na]+*): 157.2 Å²
NCCc1ccc(O)c(O)c1 [DOPAMINE],131.8 Å²,142.3 Å²,–,–
OC[C@@H](O)[C@@H](O)CO [ERYTHRITOL],–,–,129.9 Å²,–
Nc1nc(=O)c2nc(CNc3ccc(C(=O)N[C@@H](CCC(=O)O)C(=O)O)cc3)cnc2[nH]1 [FOLATE],192 Å²,196.2 Å²,205.7 Å²,collision cross section (N2) ([M+Na-2H]-): 201.3 Å²
